Measurements taken from US7291580B2, “6-(1,1-difluoroalkyl)-4-aminopicolinates and their use as herbicides” (Dow AgroSciences LLC, priority 2004, dated 2007).

What was measured:
[1] = tested on: Barnyardgrass (Echinochloa crus-galli); assay: Postemergence herbicidal activity; type: in vivo; conditions: visual score after 2 weeks, 0 = no injury, 100 = complete kill
Method: (§1) Seeds of the desired test plant species were planted in Grace-Sierra MetroMix® 306 planting mixture, which typically has a pH of 6.0 to 6.8 and an organic matter content of about 30 percent, in plastic pots with a surface area of 64 square centimeters. […] The plants were grown for 7-21 days in a greenhouse with an approximate 15 hr photoperiod which was maintained at about 23-29° C. during the day and 22-28° C. during the night. Nutrients and water were added on a regular basis and supplemental lighting was provided with overhead metal halide 1000-Watt lamps as necessary. The plants were employed for testing when they reached the first or second true leaf stage.
(§2) A weighed amount, determined by the highest rate to be tested, of each test compound was placed in a 20 mL glass vial and was dissolved in 4 mL of a 97:3 v/v (volume/volume) mixture of acetone and dimethyl sulfoxide (DMSO) to obtain concentrated stock solutions. […] The concentrated stock solutions obtained were diluted with an aqueous mixture containing acetone, water, isopropyl alcohol, DMSO, Atplus 411F crop oil concentrate, and Triton X-155 surfactant in a 48.5:39:10:1.5:1.0:0.02 v/v ratio to obtain spray solutions of known concentration. The solutions containing the highest concentration to be tested were prepared by diluting 2 mL aliquots of the stock solution with 13 mL of the mixture and lower concentrations were prepared by serial dilution of the stock solution. Approximately 1.5 mL aliquots of each solution of known concentration were sprayed evenly onto each of the test plant pots using a DeVilbiss atomizer driven by compressed air pressure of 2 to 4 psi (140 to 280 kiloPascals) to obtain thorough coverage of each plant. Control plants were sprayed in the same manner with the aqueous mixture. In this test an application rate of 1 ppm results in the application of approximately 1 g/Ha.
(§3) The treated plants and control plants were placed in a greenhouse as described above and watered by sub-irrigation to prevent wash-off of the test compounds. After 2 weeks the condition of the test plants as compared with that of the untreated plants was determined visually and scored on a scale of 0 to 100 percent where 0 corresponds to no injury and 100 corresponds to complete kill.

[2] = tested on: Cocklebur (Xanthium strumarium); assay: Postemergence herbicidal activity; type: in vivo; conditions: visual score after 2 weeks, 0 = no injury, 100 = complete kill
Method: as §1, §2, §3

[3] = tested on: Giant Foxtail (Setaria faberi); assay: Postemergence herbicidal activity; type: in vivo; conditions: visual score after 2 weeks, 0 = no injury, 100 = complete kill
Method: as §1, §2, §3

[4] = tested on: Lambsquarter (Chenopodium album); assay: Postemergence herbicidal activity; type: in vivo; conditions: visual score after 2 weeks, 0 = no injury, 100 = complete kill
Method: as §1, §2, §3

[5] = tested on: Pigweed (redroot) (Amaranthus retroflexus); conditions: rate 123 (unit not given); visual score after 2 weeks, 0 = no injury, 100 = complete kill
Method: as §1
(§4) A weighed amount, determined by the highest rate to be tested, of each test compound was placed in a 20 mL glass vial and was dissolved in 4 mL of a 97:3 v/v (volume/volume) mixture of acetone and dimethyl sulfoxide (DMSO) to obtain concentrated stock solutions. […]
as §3

[6] = tested on: Wheat (var.Merica) (Triticum aestivum); conditions: rate 123 (unit not given); crop selectivity to wheat; visual score after 2 weeks, 0 = no injury, 100 = complete kill
Method: as §1, §4, §3

[7] = tested on: Crabgrass (large) (Digitaria sanguinalis); assay: Preemergence herbicidal activity; type: in vivo; conditions: rate 560 ppm; visual score after 3 weeks, 0 = no injury, 100 = complete kill or no germination
Method: (§5) The soil matrix was contained in plastic pots with a surface area of 113 square centimeters. […] The stock solutions obtained were diluted with a 99.9:0.1 mixture of water and Tween® […] surfactant to obtain application solutions of known concentration. […] A 2.5 mL aliquot of each solution of known concentration was sprayed evenly onto the soil surface (113 sq. cm) of each seeded pot using a Cornwall 5.0 mL glass syringe fitted with a TeeJet TN-3 hollow cone nozzle to obtain thorough coverage of the soil in each pot. […] The water was added by top-irrigation.

[8] = tested on: Giant Foxtail (Setaria faberi); assay: Preemergence herbicidal activity; type: in vivo; conditions: rate 560 ppm; visual score after 3 weeks, 0 = no injury, 100 = complete kill or no germination
Method: as §5

[9] = tested on: Ivyleaf Morningglory (Ipomoea hederacea); assay: Preemergence herbicidal activity; type: in vivo; conditions: rate 560 ppm; visual score after 3 weeks, 0 = no injury, 100 = complete kill or no germination
Method: as §5

[10] = tested on: Lambsquarter (Chenopodium album); assay: Preemergence herbicidal activity; type: in vivo; conditions: rate 560 ppm; visual score after 3 weeks, 0 = no injury, 100 = complete kill or no germination
Method: as §5

Row | SMILES | Post-emergent (% injury) ECHCG ([1]; rate 245 ppm) | Post-emergent (% injury) XANST ([2]; rate 245 ppm) | Post-emergent (% injury) SETFA ([3]; rate 245 ppm) | Post-emergent (% injury) CHEAL ([4]; rate 123 (unit not given)) | Post-emergent (% injury) CHEAL ([4]; rate 245 ppm) | Post-emergent (% injury) AMARE [5] | Post-emergent (% injury) TRZAS [6] | Pre-emergent (% injury) DIGSA [7] | Pre-emergent (% injury) SETFA [8] | Pre-emergent (% injury) IPOHE [9] | Pre-emergent (% injury) CHEAL [10] | Post-emergent (% injury) ECHCG ([1]; rate 250 ppm) | Post-emergent (% injury) XANST ([2]; rate 250 ppm) | Post-emergent (% injury) SETFA ([3]; rate 250 ppm) | Post-emergent (% injury) CHEAL ([4]; rate 250 ppm)
1 | COC(=O)c1nc(C(C)(F)F)cc(N)c1Cl [Compound 1, Methyl 4-amino-3-chloro-6-(1,1-difluroethyl)pyridine-2-carboxylate] | 75% | 100% | 65% | 100% | 100% | 100% | 0% | 100% | 100% | 100% | 100% | – | – | – | –
2 | CC(F)(F)c1cc(N)c(Cl)c(C(=O)O)n1 [Compound 2, 4-amino-3-chloro-6-(1,1-difluoroethyl)pyridine-2-carboxylic acid] | – | – | – | – | – | – | – | 98% | 95% | 100% | 100% | 80% | 100% | 85% | 100%
